Among the data in ChEMBL document CHEMBL1697723, “A predictive ligand-based Bayesian model for human drug-induced liver injury” (Drug Metab Dispos, 2010) are Hepatotoxicity values, retold here.

The subject of one data set is Hepatotoxicity. Description: Human drug-induced liver injury (DILI) modelling dataset from Ekins et al.
Details: not given
Turning to `CNC(=O)Oc1ccc2c(c1)[C@]1(C)CCN(C)[C@@H]1N2C` [PHYSOSTIGMINE], the Hepatotoxicity entry was “DILI negative (training set)”. The same measure, in the same setting: in the case of `CC[C@@H]1C(=O)OC[C@@H]1Cc1cncn1C` [PILOCARPINE] it was “DILI negative (training set)”. The same measure, in the same setting: in the case of `O=c1[nH]c2ccccc2n1C1CCN(CCCC(c2ccc(F)cc2)c2ccc(F)cc2)CC1` [PIMOZIDE] it was “DILI negative (test set)”. With `CC(N/C(=N\C#N)Nc1ccncc1)C(C)(C)C` (centres undefined) [PINACIDIL ANHYDROUS], the Hepatotoxicity result was “DILI negative (training set)”. As to `CC(C)NCC(O)COc1cccc2[nH]ccc12` (centres undefined) [PINDOLOL], the Hepatotoxicity entry is on record as “DILI negative (training set)”. `CCc1ccc(CCOc2ccc(CC3SC(=O)NC3=O)cc2)nc1` (centres undefined) [PIOGLITAZONE]: the Hepatotoxicity result was “DILI negative (test set)”. Regarding `CN1C(C(=O)Nc2ccccn2)=C(O)c2ccccc2S1(=O)=O` [PIROXICAM], the Hepatotoxicity entry is “DILI positive (training set)”. On to `CC(C(=O)O)c1ccc(N2CC=CC2)c(Cl)c1` (centres undefined) [PIRPROFEN], for which the Hepatotoxicity result is given as “DILI positive (test set)”.

Regarding `C[C@]12C=CC(=O)C=C1CC[C@@H]1[C@@H]2C(=O)C[C@@]2(C)[C@H]1CC[C@]2(O)C(=O)CO` [PREDNISONE], the Hepatotoxicity entry is “DILI negative (training set)”. The same measure, in the same setting: under `COc1cc(NC(C)CCCN)c2ncccc2c1.O=P(O)(O)O.O=P(O)(O)O` (centres undefined) [PRIMAQUINE PHOSPHATE] stands “DILI negative (training set)”.

With `CCC1(c2ccccc2)C(=O)NCNC1=O` [PRIMIDONE], the Hepatotoxicity entry is reported as “DILI negative (training set)”. With `CCCN(CCC)S(=O)(=O)c1ccc(C(=O)O)cc1` [PROBENECID], the Hepatotoxicity result is recorded as “DILI negative (test set)”. In the case of `CC(C)(Sc1cc(C(C)(C)C)c(O)c(C(C)(C)C)c1)Sc1cc(C(C)(C)C)c(O)c(C(C)(C)C)c1` [PROBUCOL], the Hepatotoxicity entry is listed as “DILI negative (test set)”.

On to `CNNCc1ccc(C(=O)NC(C)C)cc1.Cl` [PROCARBAZINE HYDROCHLORIDE], for which the Hepatotoxicity entry is reported as “DILI positive (training set)”.

With `CN1CCN(CCCN2c3ccccc3Sc3ccc(Cl)cc32)CC1.O=C(O)/C=C\C(=O)O.O=C(O)/C=C\C(=O)O` [PROCHLORPERAZINE MALEATE], the Hepatotoxicity result is “DILI positive (test set)”. As to `CC(=O)[C@H]1CC[C@H]2[C@@H]3CCC4=CC(=O)CC[C@]4(C)[C@H]3CC[C@]12C` [PROGESTERONE], the Hepatotoxicity entry is reported as “DILI positive (training set)”.

As to `CN(C)CCCN1c2ccccc2Sc2ccccc21.Cl` [PROMAZINE HYDROCHLORIDE], the Hepatotoxicity entry is reported as “DILI negative (training set)”. `CC(CN1c2ccccc2Sc2ccccc21)N(C)C.Cl` (centres undefined) [PROMETHAZINE HYDROCHLORIDE]: the Hepatotoxicity result is given as “DILI negative (training set)”.

As to `CC(C)NCC(O)COc1cccc2ccccc12` (centres undefined) [PROPRANOLOL], the Hepatotoxicity result was “DILI negative (test set)”. Consider `CN[C@@H](C)[C@@H](O)c1ccccc1.Cl` [PSEUDOEPHEDRINE HYDROCHLORIDE], for which the Hepatotoxicity result is “DILI negative (training set)”. For `COc1ccc(C[C@H](N)C(=O)N[C@H]2[C@@H](O)[C@H](n3cnc4c(N(C)C)ncnc43)O[C@@H]2CO)cc1` [PUROMYCIN], the Hepatotoxicity result is “DILI positive (training set)”. On to `NC(=O)c1cnccn1` [PYRAZINAMIDE], for which the Hepatotoxicity entry is listed as “DILI positive (training set)”. On to `CN(C)C(=O)Oc1ccc[n+](C)c1.[Br-]` [PYRIDOSTIGMINE BROMIDE], for which the Hepatotoxicity result is “DILI negative (training set)”. As for `CCc1nc(N)nc(N)c1-c1ccc(Cl)cc1` [PYRIMETHAMINE], the Hepatotoxicity result is listed as “DILI positive (training set)”.

Take `C=C[C@H]1C[N@@]2CC[C@H]1C[C@@H]2[C@@H](O)c1ccnc2ccc(OC)cc12` [QUINIDINE]: the Hepatotoxicity entry is recorded as “DILI positive (training set)”.

Turning to `C=C[C@H]1CN2CC[C@H]1C[C@H]2[C@H](O)c1ccnc2ccc(OC)cc12.C=C[C@H]1CN2CC[C@H]1C[C@H]2[C@H](O)c1ccnc2ccc(OC)cc12.O.O.O=S(=O)(O)O` [QUININE SULFATE], the Hepatotoxicity entry is on record as “DILI positive (test set)”. In the case of `C=C[C@H]1C[N@@]2CC[C@H]1C[C@H]2[C@H](O)c1ccnc2ccc(OC)cc12` [QUININE], the Hepatotoxicity result is recorded as “DILI positive (training set)”. As for `CCO[C@@H](Cc1ccc(OCCN2c3ccccc3Oc3ccccc32)cc1)C(=O)O` [RAGAGLITAZAR], the Hepatotoxicity entry is reported as “DILI negative (test set)”. On the same count and under the same terms, under `O=C(c1ccc(OCCN2CCCCC2)cc1)c1c(-c2ccc(O)cc2)sc2cc(O)ccc12` [RALOXIFENE] stands “DILI negative (training set)”; under `CNC(=C[N+](=O)[O-])NCCSCc1ccc(CN(C)C)o1` [RANITIDINE], “DILI negative (training set)”; under `NC(=O)c1ncn([C@@H]2O[C@H](CO)[C@@H](O)[C@H]2O)n1` [RIBAVIRIN], “DILI negative (training set)”. On the same count and under the same terms, in the case of `CO[C@H]1/C=C/O[C@@]2(C)Oc3c(C)c(O)c4c(O)c(c(/C=N/N5CCN(C)CC5)c(O)c4c3C2=O)NC(=O)/C(C)=C\C=C\[C@H](C)[C@H](O)[C@@H](C)[C@@H](O)[C@@H](C)[C@H](OC(C)=O)[C@@H]1C` [RIFAMPIN] it was “DILI negative (test set)”; in that of `Nc1nc2ccc(OC(F)(F)F)cc2s1` [RILUZOLE], “DILI positive (training set)”. With `Cc1nc2n(c(=O)c1CCN1CCC(c3noc4cc(F)ccc34)CC1)CCCC2` [RISPERIDONE], the Hepatotoxicity entry was “DILI positive (training set)”. `CC(C)c1nc(CN(C)C(=O)N[C@H](C(=O)N[C@@H](Cc2ccccc2)C[C@H](O)[C@H](Cc2ccccc2)NC(=O)OCc2cncs2)C(C)C)cs1` [RITONAVIR]: the Hepatotoxicity result is reported as “DILI positive (test set)”. With `CN(CCOc1ccc(CC2SC(=O)NC2=O)cc1)c1ccccn1` (centres undefined) [ROSIGLITAZONE], the Hepatotoxicity entry is on record as “DILI negative (test set)”.

Regarding `C=C(C)[C@H]1Cc2c(ccc3c2O[C@@H]2COc4cc(OC)c(OC)cc4[C@@H]2C3=O)O1` [ROTENONE], the Hepatotoxicity entry is on record as “DILI positive (test set)”. For `OC[C@@H](O)[C@@H](O)[C@H](O)[C@@H](O)CO` [SORBITOL], the Hepatotoxicity entry is “DILI negative (training set)”. Consider `CC(=O)S[C@@H]1CC2=CC(=O)CC[C@]2(C)[C@H]2CC[C@@]3(C)[C@@H](CC[C@@]34CCC(=O)O4)[C@H]12` [SPIRONOLACTONE], for which the Hepatotoxicity entry is reported as “DILI positive (training set)”.

Staying with this data set, now noted: Liver.
`CC(C)c1cccc(C(C)C)c1O` [PROPOFOL]: the Hepatotoxicity entry is on record as “DILI negative (test set)”. Still for that read-out and setting: under `Cc1ncc(CO)c(CO)c1O` [PYRIDOXINE] stands “DILI negative (training set)”; under `CO[C@H]1/C=C/O[C@@]2(C)Oc3c(C)c(O)c4c(c3C2=O)C2=NC3(CCN(CC(C)C)CC3)NC2=C(NC(=O)/C(C)=C\C=C\[C@H](C)[C@H](O)[C@@H](C)[C@@H](O)[C@@H](C)[C@H](OC(C)=O)[C@@H]1C)C4=O` [RIFABUTIN], “DILI positive (test set)”; under `CC(C)(C)NC(=O)[C@@H]1C[C@@H]2CCCC[C@@H]2CN1C[C@@H](O)[C@H](Cc1ccccc1)NC(=O)[C@H](CC(N)=O)NC(=O)c1ccc2ccccc2n1.CS(=O)(=O)O` [SAQUINAVIR MESYLATE], “DILI positive (test set)”. As to `CN[C@H]1CC[C@@H](c2ccc(Cl)c(Cl)c2)c2ccccc21` [SERTRALINE], the Hepatotoxicity result is “DILI negative (training set)”.
